Consider twelve compounds from ChEMBL document CHEMBL3045742, “Antioxidant, cytotoxicity, and QSAR study of 1-adamantylthio derivatives of 3-picoline and phenylpyridines” (Med Chem Res, 2012).

Assay [1] relates to Radical scavenging activity. In words: Antioxidant activity assessed as DPPH radical scavenging activity at 300 ug/mL after 30 min. The class given is functional. (In general: Loss of DPPH colour is used to gauge radical scavenging.)
Assay [2] is described as follows: Antioxidant activity assessed as superoxide radical scavenging activity at 300 ug/mL by NBT reduction assay. The assay is classed as functional.
Assay [3] in a line: Cytotoxicity against Homo sapiens (human) HuCCa1 cells after 3 days by crystal violet staining. The class given is functional, cell-based, HuCC-A1.
Another assay relates to HepG2. Put plainly: Cytotoxicity against Homo sapiens (human) HepG2 cells after 3 days by MTT assay. The assay is classed as functional, cell-based. (In general: Formazan colour is commonly taken as a measure of viable cells.)
In the next assay the test system is A549. Put plainly: Cytotoxicity against Homo sapiens (human) A549 cells after 3 days by MTT assay. The assay is classed as functional, cell-based.
The test system of another assay is MOLT-3. In words: Cytotoxicity against Homo sapiens (human) MOLT3 cells after 3 days by crystal violet staining. The class given is functional, cell-based. To be noted: MOLT-3, 72 h.
Where [4] appears, read: Homo sapiens, HuCC-A1, 72 h, read-out: IC50.
Where [5] appears, read: Homo sapiens, HepG2, 72 h, read-out: IC50.
Setting [6] is: Homo sapiens, A549, 72 h, read-out: IC50.

In brackets after ≈: the same amount, converted by molar mass.

Regarding `c1ccc(-c2ccncc2SC23CC4CC(CC(C4)C2)C3)cc1` [3-(1-ADAMANTYLTHIO)-4-PHENYLPYRIDINE], the Activity in assay [1] was 12.2%; in assay [2], 37.5%. Besides, the IC50 (commonly the point on the concentration scale where inhibition reaches its midpoint) was determined as 29 µg/mL (≈ 90.2 µM) in assay [3] (setting [4]), 21.5 µg/mL (≈ 66.9 µM) with HepG2 (setting [5]), 24 µg/mL (≈ 74.7 µM) in the assay with A549 (setting [6]) and 8.02 µg/mL (≈ 24.9 µM) in the assay on MOLT-3.

For the compound `c1ccc(-c2ccc(SC34CC5CC(CC(C5)C3)C4)cn2)cc1`, the Activity worked out at 8.77% in assay [1] and 31.6% in assay [2].

On to `c1ccc(-c2ccc(SC34CC5CC(CC(C5)C3)C4)nc2)cc1` [6-(1-ADAMANTYLTHIO)-3-PHENYLPYRIDINE], for which the results for the Activity in assay [1] and in assay [2] were 10.6% and 18%, respectively. In addition, the IC50 result is “Not Active” in assay [3] (hucc-a1), “Not Active” with HepG2 (hepg2), 44 µg/mL (≈ 137 µM) with A549 (setting [6]) and 32.5 µg/mL (≈ 101 µM) in the assay with MOLT-3.

As to `COc1cccc2c1C(=O)c1c(O)c3c(c(O)c1C2=O)C[C@@](O)(C(=O)CO)C[C@@H]3O[C@H]1C[C@H](N)[C@H](O)[C@H](C)O1` [DOXORUBICIN], the figures for the IC50 (in assay [3] (setting [4]); with HepG2 (setting [5]); with A549 (setting [6])) were 0.45 µg/mL (≈ 0.828 µM), 0.23 µg/mL (≈ 0.423 µM) and 0.39 µg/mL (≈ 0.718 µM), respectively.

On to `Cc1ccc(SC23CC4CC(CC(C4)C2)C3)nc1` [6-(1-ADAMANTYLTHIO)-3-PICOLINE], for which the Activity was found to be 7.69% in assay [1] and 28.6% in assay [2]. The IC50 entry in assay [3] (hucc-a1) was “Not Active”; in the assay with HepG2 (hepg2), “Not Active”; with A549 (a549), “Not Active”; in the assay on MOLT-3, 27.2 µg/mL (≈ 105 µM).

Regarding `c1ccc(-c2ccnc(SC34CC5CC(CC(C5)C3)C4)c2)cc1`, the results for the Activity in assay [1] and in assay [2] were 6.95% and 32%, respectively. The IC50 entry in assay [3] (hucc-a1) was “Not Active”; in the assay with HepG2 (setting [5]), 46.5 µg/mL (≈ 145 µM); in the assay with A549 (a549), “Not Active”; in the assay with MOLT-3, 31.1 µg/mL (≈ 96.7 µM).

Regarding `c1ccc(-c2cccnc2SC23CC4CC(CC(C4)C2)C3)cc1`, the Activity in assay [1] came to 11.1%; in assay [2] it was 26.7%.

On to `COc1cc([C@@H]2c3cc4c(cc3[C@@H](O[C@@H]3O[C@@H]5CO[C@@H](C)O[C@H]5[C@H](O)[C@H]3O)[C@H]3COC(=O)[C@H]23)OCO4)cc(OC)c1O` [ETOPOSIDE], for which the IC50 worked out at 12 µg/mL (≈ 20.4 µM) in the assay with HepG2 (setting [5]) and 0.019 µg/mL (≈ 0.0323 µM) in the assay with MOLT-3.

With `c1ccc(-c2cccc(SC34CC5CC(CC(C5)C3)C4)n2)cc1` [6-(1-ADAMANTYLTHIO)-2-PHENYLPYRIDINE], the Activity in assay [1] stood at 7.37%; in assay [2], 25.9%. The IC50 entry was “Not Active” in assay [3] (hucc-a1), 48.5 µg/mL (≈ 151 µM) in the assay on HepG2 (setting [5]), 44 µg/mL (≈ 137 µM) in the assay on A549 (setting [6]) and 32.2 µg/mL (≈ 100 µM) in the assay on MOLT-3.

Consider `Cc1cncc(SC23CC4CC(CC(C4)C2)C3)c1` [5-(1-ADAMANTYLTHIO)-3-PICOLINE], for which the Activity was 7.96% in assay [1] and 36.9% in assay [2]. The IC50 in assay [3] (setting [4]) stood at 34 µg/mL (≈ 131 µM); in the assay with HepG2 (setting [5]) it was 26.5 µg/mL (≈ 102 µM); in the assay with A549 (setting [6]), 29 µg/mL (≈ 112 µM); with MOLT-3, 15.8 µg/mL (≈ 61.1 µM).

Take `c1ccc(-c2cc(SC34CC5CC(CC(C5)C3)C4)ccn2)cc1` [4-(1-ADAMANTYLTHIO)-2-PHENYLPYRIDINE]: the Activity was 30.2% in assay [1] and 32.1% in assay [2]. Besides, the IC50 in assay [3] (setting [4]) is 49 µg/mL (≈ 152 µM); in the assay with HepG2 (hepg2), “Not Active”; in the assay with A549 (setting [6]), 38 µg/mL (≈ 118 µM); in the assay on MOLT-3 it was 28.6 µg/mL (≈ 88.8 µM).

Take `Cc1cccnc1SC12CC3CC(CC(C3)C1)C2`: the Activity was found to be 19.6% in assay [1] and 10.8% in assay [2]. For the same compound, the IC50 result in assay [3] (hucc-a1) was “Not Active”; in the assay with HepG2 (setting [5]), 30 µg/mL (≈ 116 µM); with A549 (a549), “Not Active”; with MOLT-3, 33.3 µg/mL (≈ 128 µM).
